Test results: ChEMBL document CHEMBL3862042 (J Med Chem, 2017)

Legend:
Hepatitis C virus [1] = test: microbe, parasite or virus in culture; settings: genotype 1b, Huh-7, 72 h
[2] = target: T1, Phosphatidylinositol 4-kinase type 2-alpha (Homo sapiens, UniProt Q9BTU6); test: Inhibition of PI4K2A (unknown origin) assessed as remaining enzyme activity by ADP-Glo kinase assay relative to untreated control; parameters: concentration or dose not given beside the values
[3] = Cytotoxicity against human HeLa cells incubated for 3 days by MTT assay; type: toxicity, cell-based
Human rhinovirus 1A = test: microbe, parasite or virus in culture; settings: HeLa, 72 h
Coxsackievirus B3 = test: microbe, parasite or virus in culture; settings: Enterovirus B, Nancy, HeLa, 4 h
Hepatitis C virus [4] = test: microbe, parasite or virus in culture; settings: subtype 2a JFH1, Huh-7, 72 h
[5] = target: T2, Phosphatidylinositol 4-kinase beta (Homo sapiens, UniProt Q9UBF8); test: Inhibition of PI4KB (unknown origin) at 1 uM by ADP-Glo kinase assay
[6] = target: Phosphatidylinositol 4,5-bisphosphate 3-kinase catalytic subunit gamma isoform (Homo sapiens, UniProt P48736); test: Inhibition of PI3Kgamma (unknown origin) by ADP-Glo kinase assay
[7] = target: Phosphatidylinositol 4,5-bisphosphate 3-kinase catalytic subunit beta isoform (Homo sapiens, UniProt P42338); test: Inhibition of PI3Kbeta (unknown origin) by ADP-Glo kinase assay
Sequence of Phosphatidylinositol 4,5-bisphosphate 3-kinase catalytic subunit beta isoform (P42338 whole entry, canonical isoform): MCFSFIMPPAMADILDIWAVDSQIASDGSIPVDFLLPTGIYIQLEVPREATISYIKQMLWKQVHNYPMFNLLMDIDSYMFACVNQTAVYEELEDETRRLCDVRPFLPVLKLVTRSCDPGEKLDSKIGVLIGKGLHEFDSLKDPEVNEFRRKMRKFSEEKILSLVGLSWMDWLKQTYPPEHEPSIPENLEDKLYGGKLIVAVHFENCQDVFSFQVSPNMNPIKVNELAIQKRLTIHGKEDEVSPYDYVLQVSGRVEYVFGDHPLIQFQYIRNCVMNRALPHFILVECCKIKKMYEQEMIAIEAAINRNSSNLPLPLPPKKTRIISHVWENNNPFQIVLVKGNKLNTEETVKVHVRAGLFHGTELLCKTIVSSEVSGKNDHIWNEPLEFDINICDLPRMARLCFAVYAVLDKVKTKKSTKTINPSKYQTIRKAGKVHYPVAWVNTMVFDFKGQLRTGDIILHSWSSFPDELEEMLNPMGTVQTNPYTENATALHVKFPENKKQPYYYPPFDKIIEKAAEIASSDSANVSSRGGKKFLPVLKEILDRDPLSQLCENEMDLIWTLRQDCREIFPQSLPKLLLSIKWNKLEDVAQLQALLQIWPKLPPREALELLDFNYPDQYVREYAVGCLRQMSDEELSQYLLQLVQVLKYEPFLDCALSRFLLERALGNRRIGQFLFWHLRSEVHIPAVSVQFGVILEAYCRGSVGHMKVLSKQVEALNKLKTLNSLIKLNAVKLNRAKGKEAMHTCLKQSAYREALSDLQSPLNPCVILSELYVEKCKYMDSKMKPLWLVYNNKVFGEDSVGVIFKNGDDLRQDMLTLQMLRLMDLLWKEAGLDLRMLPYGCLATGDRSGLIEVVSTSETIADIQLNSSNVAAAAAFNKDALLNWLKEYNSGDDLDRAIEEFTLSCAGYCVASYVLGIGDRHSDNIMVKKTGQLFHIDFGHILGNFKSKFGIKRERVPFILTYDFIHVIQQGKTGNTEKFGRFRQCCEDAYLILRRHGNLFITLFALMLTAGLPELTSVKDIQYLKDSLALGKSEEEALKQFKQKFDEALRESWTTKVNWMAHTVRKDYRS

[8] = target: T3, Phosphatidylinositol 4,5-bisphosphate 3-kinase catalytic subunit delta isoform (Homo sapiens, UniProt O00329); test: Inhibition of PI3Kdelta (unknown origin) by ADP-Glo kinase assay
T3 sequence (O00329 whole entry): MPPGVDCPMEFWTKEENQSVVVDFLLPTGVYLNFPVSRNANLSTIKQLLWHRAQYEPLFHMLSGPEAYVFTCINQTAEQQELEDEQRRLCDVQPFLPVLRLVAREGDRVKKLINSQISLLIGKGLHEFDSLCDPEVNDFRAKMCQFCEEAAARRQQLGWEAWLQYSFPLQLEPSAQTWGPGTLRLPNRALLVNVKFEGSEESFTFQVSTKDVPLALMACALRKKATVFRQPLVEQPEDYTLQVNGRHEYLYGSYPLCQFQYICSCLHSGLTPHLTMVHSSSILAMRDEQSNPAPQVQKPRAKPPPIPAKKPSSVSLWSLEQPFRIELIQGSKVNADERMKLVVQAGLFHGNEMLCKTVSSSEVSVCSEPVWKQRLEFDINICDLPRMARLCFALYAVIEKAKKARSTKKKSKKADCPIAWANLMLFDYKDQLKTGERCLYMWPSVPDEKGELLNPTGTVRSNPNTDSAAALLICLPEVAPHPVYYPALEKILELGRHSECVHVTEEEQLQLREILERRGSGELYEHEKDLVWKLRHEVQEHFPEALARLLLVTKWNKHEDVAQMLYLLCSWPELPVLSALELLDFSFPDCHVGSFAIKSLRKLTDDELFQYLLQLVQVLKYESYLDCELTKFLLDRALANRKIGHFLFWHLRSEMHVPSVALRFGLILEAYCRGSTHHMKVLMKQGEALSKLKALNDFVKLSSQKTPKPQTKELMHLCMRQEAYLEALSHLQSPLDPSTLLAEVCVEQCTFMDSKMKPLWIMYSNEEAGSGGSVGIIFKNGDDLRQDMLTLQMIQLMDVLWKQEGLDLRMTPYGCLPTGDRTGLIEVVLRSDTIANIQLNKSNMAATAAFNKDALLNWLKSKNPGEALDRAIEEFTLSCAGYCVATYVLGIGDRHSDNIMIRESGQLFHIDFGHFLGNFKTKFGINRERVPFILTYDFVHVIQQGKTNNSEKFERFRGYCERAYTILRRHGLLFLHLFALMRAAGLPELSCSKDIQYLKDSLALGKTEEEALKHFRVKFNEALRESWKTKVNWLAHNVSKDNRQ

[9] = target: Phosphatidylinositol 4-kinase alpha (Homo sapiens, UniProt P42356); test: Inhibition of PI4KA (unknown origin) by ADP-Glo kinase assay
Sequence of Phosphatidylinositol 4-kinase alpha (P42356 whole entry, canonical isoform): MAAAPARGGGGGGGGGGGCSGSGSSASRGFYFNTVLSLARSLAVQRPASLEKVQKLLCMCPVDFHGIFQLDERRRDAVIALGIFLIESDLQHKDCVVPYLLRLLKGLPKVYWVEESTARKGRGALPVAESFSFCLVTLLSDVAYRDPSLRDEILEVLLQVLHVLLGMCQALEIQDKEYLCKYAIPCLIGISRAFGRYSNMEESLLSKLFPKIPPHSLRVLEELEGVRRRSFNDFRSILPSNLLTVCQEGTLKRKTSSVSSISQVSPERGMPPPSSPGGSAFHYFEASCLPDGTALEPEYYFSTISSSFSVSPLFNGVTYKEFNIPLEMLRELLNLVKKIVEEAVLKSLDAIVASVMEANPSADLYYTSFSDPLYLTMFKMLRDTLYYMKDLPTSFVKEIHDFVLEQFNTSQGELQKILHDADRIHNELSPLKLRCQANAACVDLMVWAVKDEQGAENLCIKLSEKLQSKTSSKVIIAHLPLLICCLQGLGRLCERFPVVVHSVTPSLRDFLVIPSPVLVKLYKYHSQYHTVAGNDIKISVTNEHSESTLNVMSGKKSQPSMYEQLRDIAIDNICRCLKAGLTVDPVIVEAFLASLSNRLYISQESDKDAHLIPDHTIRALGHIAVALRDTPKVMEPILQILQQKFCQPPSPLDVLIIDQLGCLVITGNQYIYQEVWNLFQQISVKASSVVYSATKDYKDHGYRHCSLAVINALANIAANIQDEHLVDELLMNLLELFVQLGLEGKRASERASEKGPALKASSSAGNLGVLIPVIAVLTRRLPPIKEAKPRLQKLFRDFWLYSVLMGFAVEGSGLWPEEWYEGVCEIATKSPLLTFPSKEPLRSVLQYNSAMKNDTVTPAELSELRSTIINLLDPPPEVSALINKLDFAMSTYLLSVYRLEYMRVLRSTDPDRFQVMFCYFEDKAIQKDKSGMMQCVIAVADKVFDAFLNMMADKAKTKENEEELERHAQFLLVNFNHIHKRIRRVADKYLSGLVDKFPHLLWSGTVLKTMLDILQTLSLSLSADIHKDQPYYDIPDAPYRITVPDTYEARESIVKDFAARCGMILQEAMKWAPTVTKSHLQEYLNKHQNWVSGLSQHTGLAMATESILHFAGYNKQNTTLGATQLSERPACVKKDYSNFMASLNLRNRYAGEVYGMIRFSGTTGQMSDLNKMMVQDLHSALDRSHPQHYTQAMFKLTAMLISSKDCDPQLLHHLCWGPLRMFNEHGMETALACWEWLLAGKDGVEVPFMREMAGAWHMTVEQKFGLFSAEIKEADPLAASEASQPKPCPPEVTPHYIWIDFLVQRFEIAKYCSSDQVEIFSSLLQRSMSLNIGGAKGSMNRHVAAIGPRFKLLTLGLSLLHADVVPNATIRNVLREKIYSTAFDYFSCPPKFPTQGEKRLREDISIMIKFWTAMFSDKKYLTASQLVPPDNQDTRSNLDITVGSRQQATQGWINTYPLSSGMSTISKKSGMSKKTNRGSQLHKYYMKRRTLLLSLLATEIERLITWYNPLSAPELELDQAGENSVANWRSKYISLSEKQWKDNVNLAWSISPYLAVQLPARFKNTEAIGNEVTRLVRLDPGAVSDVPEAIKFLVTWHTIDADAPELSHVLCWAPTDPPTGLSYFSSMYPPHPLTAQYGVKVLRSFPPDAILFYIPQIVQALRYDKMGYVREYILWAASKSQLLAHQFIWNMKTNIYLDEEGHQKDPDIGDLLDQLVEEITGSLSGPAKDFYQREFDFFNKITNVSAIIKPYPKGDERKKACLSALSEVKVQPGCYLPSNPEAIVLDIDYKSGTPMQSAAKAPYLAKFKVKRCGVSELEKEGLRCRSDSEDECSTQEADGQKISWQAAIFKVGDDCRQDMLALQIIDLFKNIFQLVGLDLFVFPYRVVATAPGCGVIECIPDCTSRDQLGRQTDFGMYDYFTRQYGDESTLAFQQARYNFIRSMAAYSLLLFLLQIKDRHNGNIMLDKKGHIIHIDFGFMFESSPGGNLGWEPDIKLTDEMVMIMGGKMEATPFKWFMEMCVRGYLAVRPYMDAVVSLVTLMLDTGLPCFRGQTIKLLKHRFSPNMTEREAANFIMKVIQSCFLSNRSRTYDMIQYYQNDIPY

[10] = target: Phosphatidylinositol 4,5-bisphosphate 3-kinase catalytic subunit alpha isoform (Homo sapiens, UniProt P42336); test: Inhibition of PI3Kalpha (unknown origin) by ADP-Glo kinase assay
[11] = target: T1, Phosphatidylinositol 4-kinase type 2-alpha; test: Inhibition of PI4K2A (unknown origin) by ADP-Glo kinase assay
[12] = target: T2, Phosphatidylinositol 4-kinase beta; test: Inhibition of PI4KB (unknown origin) by ADP-Glo kinase assay
Target sequence in this assay (Q9UBF8 whole entry, canonical isoform): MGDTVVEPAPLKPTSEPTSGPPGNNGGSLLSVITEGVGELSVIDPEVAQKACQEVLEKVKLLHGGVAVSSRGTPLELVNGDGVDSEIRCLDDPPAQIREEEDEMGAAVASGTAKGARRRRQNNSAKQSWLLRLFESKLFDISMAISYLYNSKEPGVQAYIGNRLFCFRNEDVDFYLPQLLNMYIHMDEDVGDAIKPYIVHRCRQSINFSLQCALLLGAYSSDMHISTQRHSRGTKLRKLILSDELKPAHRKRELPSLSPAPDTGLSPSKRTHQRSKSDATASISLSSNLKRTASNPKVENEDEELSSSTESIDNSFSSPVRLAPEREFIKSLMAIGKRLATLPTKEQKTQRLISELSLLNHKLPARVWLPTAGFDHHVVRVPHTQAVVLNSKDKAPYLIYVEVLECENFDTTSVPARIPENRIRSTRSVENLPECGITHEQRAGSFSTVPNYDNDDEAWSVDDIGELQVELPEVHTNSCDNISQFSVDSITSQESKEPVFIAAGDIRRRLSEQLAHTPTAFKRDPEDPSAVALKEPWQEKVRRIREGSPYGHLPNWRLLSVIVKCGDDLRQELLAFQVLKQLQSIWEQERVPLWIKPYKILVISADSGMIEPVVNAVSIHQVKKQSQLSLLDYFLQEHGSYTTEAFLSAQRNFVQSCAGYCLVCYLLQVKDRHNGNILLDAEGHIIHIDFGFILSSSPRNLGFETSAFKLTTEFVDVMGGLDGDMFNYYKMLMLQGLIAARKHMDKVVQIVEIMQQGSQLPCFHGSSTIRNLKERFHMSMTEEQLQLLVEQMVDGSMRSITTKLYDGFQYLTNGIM

T1 sequence (Q9BTU6 whole entry): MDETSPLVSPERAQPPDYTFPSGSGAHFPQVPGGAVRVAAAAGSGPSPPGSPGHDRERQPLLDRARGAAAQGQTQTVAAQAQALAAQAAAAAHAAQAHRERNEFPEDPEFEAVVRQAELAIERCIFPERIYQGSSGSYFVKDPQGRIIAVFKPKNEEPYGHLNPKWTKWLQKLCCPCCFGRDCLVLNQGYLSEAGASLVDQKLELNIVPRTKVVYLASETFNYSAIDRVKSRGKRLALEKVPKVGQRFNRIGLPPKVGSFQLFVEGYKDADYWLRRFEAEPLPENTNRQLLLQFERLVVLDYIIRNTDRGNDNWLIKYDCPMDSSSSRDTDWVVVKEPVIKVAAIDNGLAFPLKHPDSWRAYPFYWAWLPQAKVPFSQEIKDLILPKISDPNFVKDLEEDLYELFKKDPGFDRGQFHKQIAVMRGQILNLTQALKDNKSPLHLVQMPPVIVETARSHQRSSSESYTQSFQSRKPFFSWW

Compound: CCc1cc(CNc2cc(Cl)nn3c(-c4ccc(OC)c(S(=O)(=O)n5cccn5)c4)c(C)nc23)ccn1
- EC50 (Hepatitis C virus [1]): 0.954 µM
- Activity [2]: 112%
- CC50 at 72 h [3]: 61.9 µM
- EC50 (Human rhinovirus 1A): < 0.01 µM
- EC50 (Coxsackievirus B3): 0.138 µM
- EC50 (Hepatitis C virus [4]): > 44.4 µM

Compound: CCc1cc(CNc2cc(Cl)nn3c(-c4cccc(S(=O)(=O)N(C)C)c4)c(C)nc23)ccn1
- EC50 (Hepatitis C virus [1]): 0.393 µM
- CC50 at 72 h [3]: 15.4 µM
- EC50 (Human rhinovirus 1A): 0.062 µM
- EC50 (Coxsackievirus B3): 1.1 µM
- EC50 (Hepatitis C virus [4]): 8.69 µM

Compound: CCc1cc(CNc2cc(Cl)nn3c(-c4ccc(OC)c(S(=O)(=O)N5CCC(CO)CC5)c4)c(C)nc23)ccn1
- Activity [2]: 115%

Compound: COc1ccc(-c2c(C)nc3c(NCCNC(C)=O)cc(Cl)nn23)cc1S(=O)(=O)NCCO
- Activity [2]: 112%

Compound: CCc1cc(CNc2cc(Cl)nn3c(-c4ccc(OC)c(S(=O)(=O)N5CCOCC5)c4)c(C)nc23)ccn1
- EC50 (Hepatitis C virus [1]): 1.02 µM
- Activity [2]: 97%
- CC50 at 72 h [3]: 25.7 µM
- EC50 (Human rhinovirus 1A): < 0.01 µM
- EC50 (Coxsackievirus B3): 0.083 µM
- EC50 (Hepatitis C virus [4]): 26 µM

Compound: CCc1cc(CNc2cc(Cl)nn3c(-c4ccc(OC)c(S(=O)(=O)N5CCC(O)CC5)c4)c(C)nc23)ccn1
- EC50 (Hepatitis C virus [1]): 0.02 µM
- Activity [2]: 109%
- CC50 at 72 h [3]: 8.4 µM
- EC50 (Human rhinovirus 1A): < 0.01 µM
- EC50 (Coxsackievirus B3): 0.017 µM
- EC50 (Hepatitis C virus [4]): 20.4 µM

Compound: COc1ccc(-c2c(C)nc3c(NCCNC(C)=O)cc(Cl)nn23)cc1S(=O)(=O)NC1CC1
- Activity [2]: 108%

Compound: CCc1cc(CNc2cc(Cl)nn3c(-c4ccc(OC)c(S(=O)(=O)NC5CCC(N)CC5)c4)c(C)nc23)ccn1 (configuration not stated)
- EC50 (Hepatitis C virus [1]): 9.2 µM
- Activity [2]: 101%
- CC50 at 72 h [3]: 5.76 µM
- EC50 (Human rhinovirus 1A): 0.069 µM
- EC50 (Coxsackievirus B3): 0.056 µM
- EC50 (Hepatitis C virus [4]): 26.5 µM

Compound: COc1ccc(-c2c(C)nc3c(NCCNC(C)=O)cc(Cl)nn23)cc1S(=O)(=O)N(C)C
- EC50 (Hepatitis C virus [1]): 0.594 µM
- Activity [2]: 104%
- CC50 at 72 h [3]: 84.2 µM
- EC50 (Human rhinovirus 1A): 0.716 µM
- EC50 (Coxsackievirus B3): 1.32 µM
- EC50 (Hepatitis C virus [4]): > 44.4 µM

Compound: CCc1cc(CNc2cc(Cl)nn3c(-c4ccc(OC)c(S(=O)(=O)NCCO)c4)c(C)nc23)ccn1
- EC50 (Hepatitis C virus [1]): 0.029 µM
- inhibition [5]: 50%
- IC50 [6]: < 10 µM
- IC50 [7]: < 10 µM
- IC50 [8]: < 10 µM
- IC50 [9]: 13.4 µM
- Activity [2]: 106%
- IC50 [10]: < 10 µM
- CC50 at 72 h [3]: 18.3 µM
- EC50 (Human rhinovirus 1A): 0.075 µM
- EC50 (Coxsackievirus B3): 0.058 µM
- IC50 [11]: > 10 µM
- EC50 (Hepatitis C virus [4]): 14.4 µM

Compound: CCc1cc(CNc2cc(Cl)nn3c(-c4ccc(OC)cc4)c(C)nc23)ccn1
- Activity [2]: 101%

Compound: COc1ccc(-c2c(C)nc3c(NCCNC(C)=O)cc(Cl)nn23)cc1S(=O)(=O)NCCN(C)C
- Activity [2]: 105%

Compound: COc1ccc(-c2c(C)nc3c(NCCNC(C)=O)cc(Cl)nn23)cc1S(=O)(=O)N1CCC(CO)CC1
- EC50 (Hepatitis C virus [1]): 1.83 µM
- Activity [2]: 85%
- CC50 at 72 h [3]: 131 µM
- EC50 (Human rhinovirus 1A): 5.42 µM
- EC50 (Coxsackievirus B3): 5 µM
- EC50 (Hepatitis C virus [4]): > 44.4 µM

Compound: COc1ccc(-c2c(C)nc3c(NCCNC(C)=O)cc(Cl)nn23)cc1S(=O)(=O)N1CCCCC1
- Activity [2]: 60%

Compound: CNCCNS(=O)(=O)c1cc(-c2c(C)nc3c(NCCNC(C)=O)cc(Cl)nn23)ccc1OC
- Activity [2]: 73%

Compound: COc1ccc(-c2c(C)nc3c(NCCNC(C)=O)cc(Cl)nn23)cc1S(=O)(=O)N1CCOCC1
- EC50 (Hepatitis C virus [1]): 1.03 µM
- Activity [2]: 88%
- CC50 at 72 h [3]: 89.2 µM
- EC50 (Human rhinovirus 1A): 0.655 µM
- EC50 (Coxsackievirus B3): 0.038 µM
- EC50 (Hepatitis C virus [4]): > 44.4 µM

Compound: CCc1cc(CNc2cc(Cl)nn3c(-c4ccc(OC)c(S(=O)(=O)NC(CC)CO)c4)c(C)nc23)ccn1 (configuration not stated)
- EC50 (Hepatitis C virus [1]): < 0.02 µM
- Activity [2]: 104%
- CC50 at 72 h [3]: 17.9 µM
- EC50 (Human rhinovirus 1A): < 0.01 µM
- EC50 (Coxsackievirus B3): 0.476 µM
- EC50 (Hepatitis C virus [4]): 9.44 µM

Compound: C=CCNS(=O)(=O)c1cc(-c2c(C)nc3c(NCCNC(C)=O)cc(Cl)nn23)ccc1OC
- EC50 (Hepatitis C virus [1]): 2.68 µM
- Activity [2]: 93%
- CC50 at 72 h [3]: 445 µM
- EC50 (Human rhinovirus 1A): 0.99 µM
- EC50 (Coxsackievirus B3): 5.31 µM
- EC50 (Hepatitis C virus [4]): 35.9 µM

Compound: CCc1cc(CNc2cc(Cl)nn3c(-c4ccc(OC)c(S(=O)(=O)N(C)C)c4)c(C)nc23)ccn1
- Activity [2]: 106%

Compound: CCc1cc(CNc2cc(Cl)nn3c(-c4ccc(OC)c(S(=O)(=O)NCCN(C)C)c4)c(C)nc23)ccn1
- EC50 (Hepatitis C virus [1]): 0.35 µM
- Activity [2]: 100%
- CC50 at 72 h [3]: 5.56 µM
- EC50 (Human rhinovirus 1A): < 0.01 µM
- EC50 (Coxsackievirus B3): 0.151 µM
- EC50 (Hepatitis C virus [4]): 8.51 µM

Compound: CCC(CO)NS(=O)(=O)c1cc(-c2c(C)nc3c(NCCNC(C)=O)cc(Cl)nn23)ccc1OC (configuration not stated)
- EC50 (Hepatitis C virus [1]): 3.42 µM
- Activity [2]: 77%
- CC50 at 72 h [3]: > 50 µM
- EC50 (Human rhinovirus 1A): 6.76 µM
- EC50 (Coxsackievirus B3): 1.66 µM
- EC50 (Hepatitis C virus [4]): > 44.4 µM

Compound: COc1ccc(-c2c(C)nc3c(NCCNC(C)=O)cc(Cl)nn23)cc1S(=O)(=O)N1CCC(O)CC1
- Activity [2]: 88%

Compound: COc1ccc(-c2c(C)nc3c(NCCNC(C)=O)cc(Cl)nn23)cc1S(=O)(=O)n1cccn1
- Activity [2]: 83%

Compound: CCc1cc(CNc2cc(Cl)nn3c(-c4ccc(OC)c(S(=O)(=O)NCCOC)c4)c(C)nc23)ccn1
- EC50 (Hepatitis C virus [1]): 0.416 µM
- Activity [2]: 104%
- CC50 at 72 h [3]: 9.14 µM
- EC50 (Human rhinovirus 1A): < 0.01 µM
- EC50 (Coxsackievirus B3): < 0.02 µM
- EC50 (Hepatitis C virus [4]): 27.9 µM

Compound: CCc1cc(CNc2cc(Cl)nn3c(-c4ccc(OC)c(S(=O)(=O)N5CCCCC5)c4)c(C)nc23)ccn1
- Activity [2]: 99%

Compound: COc1ccc(-c2c(C)nc3c(NCCNC(C)=O)cc(Cl)nn23)cc1S(=O)(=O)NC1CCC(N)CC1 (configuration not stated)
- Activity [2]: 102%

Compound: COCCNS(=O)(=O)c1cc(-c2c(C)nc3c(NCCNC(C)=O)cc(Cl)nn23)ccc1OC
- Activity [2]: 107%

Compound: CC(=O)NCCNc1cc(Cl)nn2c(-c3cccc(S(=O)(=O)N(C)C)c3)c(C)nc12
- IC50 [12]: 0.054 µM
- IC50 [9]: > 100 µM

Compound: C=CCNS(=O)(=O)c1cc(-c2c(C)nc3c(NCc4ccnc(CC)c4)cc(Cl)nn23)ccc1OC
- EC50 (Hepatitis C virus [1]): 0.667 µM
- Activity [2]: 105%
- CC50 at 72 h [3]: 6.85 µM
- EC50 (Human rhinovirus 1A): < 0.01 µM
- EC50 (Coxsackievirus B3): 0.012 µM
- EC50 (Hepatitis C virus [4]): 20.1 µM

Compound: CCc1cc(CNc2cc(Cl)nn3c(-c4ccc(OC)c(S(=O)(=O)NC5CC5)c4)c(C)nc23)ccn1
- Activity [2]: 114%
